Eight molecules from US20130184337A1, “SODIUM ASCORBATE STIMULATION OF ELASTOGENESIS” (THE HOSPITAL FOR SICK CHILDREN, priority 2012, published 2013) can be followed below.

Entries after “also recorded” stand apart in the source; their conditions may differ.

Test [1] concerns normal dermal fibroblasts. Briefly: Collagen fiber deposition (immuno-staining of collagen type I, morphometry). Type of test: cell-based, human. The method, then: Cell Cultures—Fibroblasts initially grew out from the explants of these full thickness skin biopsies and were maintained. The primary cultures of fat-derived fibroblasts obtained from Thermogenesis (Rancho Cordova, Calif.) were also tested. In all described experiments, 2-4 passages of both kinds of fibroblasts were used. In experiments aimed at assessing ECM production, cells were initially plated at a concentration of 100,000 cells/dish. Confluent cultures were then maintained either in serum-free medium (DMEM) or in medium supplemented with 5% FBS in the presence of different reagents that were added 1 hour before treatments with SA.
(§1) Immuno-staining—All cultures maintained in the presence and absence of indicated reagents were either fixed in cold 100% methanol at −20° C. (for detection of elastin) or in 4% paraformaldehyde at room temperature (for detection of collagen I). The multiple parallel cultures were then incubated with 10 μg/ml of polyclonal antibody to tropoelastin (Elastin Products, Owensville, Mich.), or polyclonal antibody to collagen type I (Chemicon, Temecula, Calif.). Cultures were then incubated with the respective fluorescein-conjugated goat anti-rabbit, goat anti-mouse, or rabbit anti-goat secondary antibodies. Nuclei were counterstained with propidium iodide (Sigma, Sigma, St. Louis, Mo.). All of the cultures were then examined with a Nikon Eclipse E1000 microscope attached to a cooled CCD camera (QImaging, Retiga EX) and analyzed by the computer-generated morphometric analysis system (Image-Pro Plus software, Media Cybernetics, Silver Springs, Md.) as previously described.

The next test deals with explants of dermal scars. Briefly: Organ culture of skin explants (histochemistry, insoluble elastin). The format is cell-based, human. As to conditions: 1 mM DMOG alone. The method, then:
Organ culture of skin explants—Fragments of normal skin, stretch-marked skin and dermal scars collected during plastic surgery procedures were cut into multiple 4 mm2 pieces and maintained for 7 days in DMEM medium containing 5% FBS, […] The parallel quadruplicate explants from each experimental group were additionally maintained in the presence 2 μCi of [3H]-valine/ml and then subjected to the assay of insoluble elastin. The parallel explants from each experimental groups were also evaluated after pentachrome Movat's staining which allows for clear marking of elastic fibers. In each experimental group, 50 sections derived from quadruplicate explants were analyzed.

Test [2] relates to normal dermal fibroblasts. The test is described as follows: Elastic fiber deposition (immuno-staining morphometry, [3H]-valine insoluble elastin) in monolayer cultures. Type of test: cell-based, human. As to conditions: for elastogenic effects of 100 μM SA after pre-treatment with the inhibitor (mRNA, tropoelastin, insoluble elastin, elastic fibers): inhibitor pre-incubation then 100 μM SA, probenecid 400 μM. How it is done:
Cell Cultures—Fibroblasts initially grew out from the explants of these full thickness skin biopsies and were maintained. The primary cultures of fat-derived fibroblasts obtained from Thermogenesis (Rancho Cordova, Calif.) were also tested. In all described experiments, 2-4 passages of both kinds of fibroblasts were used. In experiments aimed at assessing ECM production, cells were initially plated at a concentration of 100,000 cells/dish.
as §1
Quantitative Assays of Insoluble Elastin—Fibroblasts were grown to confluency in 35-mm culture dishes (100,000 cells/dish). Next, 2 μCi of [3H]-valine/ml (Amersham Biosciences Ltd. Oakville, Canada), were added to each dish along with or without the indicated treatments. At the end of each experiment, the levels of metabolically labeled NaOH-insoluble elastin present in individual cultures were assayed and normalized per their DNA content.

Test [3] concerns reactive oxygen species (ROS). Briefly: Intracellular ROS with CM-H2DCFDA probe (fluorescence microscope, flow cytophotometry). The format is cell-based, human. How it is done:
Quantification of Intracellular free radicals-reactive oxygen species (ROS)—To assess the levels of ROS, quadruplicate cultures of normal skin fibroblasts were exposed to 10 μM of ROS-sensitive CM-H2DCFDA fluorescent probe (Molecular Probes, Eugene, Oreg.) for 30 minutes. This probe passively diffuses into the cell interior and only upon oxidation is a fluorescent product released that can be visualized under a fluorescent microscope or captured by flow cytophotometry when excited at 480 nm. Fibroblasts were then maintained for 30 minutes in the presence or absence of 400 μM probenecid, then incubated either for 2 or 24 hours with and without 100 μM AA or 100 μM SA. At the end of these periods the images were captured using a fluorescent microscope under identical parameters of contrast and brightness. The ROS production was also assessed by flow cytophotometry (λ excitation 480 nm; λ emission 520 nm), using FACSCalibur, Beckton Dickinson Instrument.

The subject of test [4] is fibroblasts derived from dermal stretch marks. The test is described as follows: Collagen and elastic fiber deposition in stretch-mark fibroblast cultures. As to conditions: 200 μM, 24 hour-old cultures. Type of test: cell-based, human. The method, then: Cell Cultures-Fibroblasts initially grew out from the explants of these full thickness skin biopsies and were maintained. The primary cultures of fat-derived fibroblasts obtained from Thermogenesis (Rancho Cordova, Calif.) were also tested. In all described experiments, 2-4 passages of both kinds of fibroblasts were used. In experiments aimed at assessing ECM production, cells were initially plated at a concentration of 100,000 cells/dish. […] Immuno-staining-All cultures maintained in the presence and absence of indicated reagents were either fixed in cold 100% methanol at -20° C. (for detection of elastin) or in 4% paraformaldehyde at room temperature (for detection of collagen I). The multiple parallel cultures were then incubated with 10 μg/ml of polyclonal antibody to tropoelastin (Elastin Products, Owensville, Mich.), or polyclonal antibody to collagen type I (Chemicon, Temecula, Calif.). Cultures were then incubated with the respective fluorescein-conjugated goat anti-rabbit, goat anti-mouse, or rabbit anti-goat secondary antibodies. Nuclei were counterstained with propidium iodide (Sigma, Sigma, St. Louis, Mo.). All of the cultures were then examined with a Nikon Eclipse […] microscope attached to a cooled CCD camera (QImaging, Retiga EX) and analyzed by the computer-generated morphometric analysis system (Image-Pro Plus software, Media Cybernetics, Silver Springs, Md.) as previously described. Quantitative Assays of Insoluble Elastin-Fibroblasts were grown to confluency in 35-mm culture dishes (100,000 cells/dish). Next, 2 μCi of [3H]-valine/ml (Amersham Biosciences Ltd. Oakville, Canada), were added to each dish along with or without the indicated treatments. At the end of each experiment, the levels of metabolically labeled NaOH-insoluble elastin present in individual cultures were assayed and normalized per their DNA content.

Another test concerns the target T1, IGF-1 receptor (Homo sapiens, UniProt P08069).
T1 construct: immuno-precipitated with antibody to β subunit of IGF-1R and detected by Western blotting with anti-phospho-tyrosine antibody; endogenous in cells; host or cells: cultured dermal fibroblasts
Briefly: IGF-1R phosphorylation (immuno-precipitation, anti-phospho-tyrosine Western blot). As to conditions: pretreated and maintained with inhibitor, 100 μM SA. The format is cell-based. The method, then:
At the end of each experiment cells were submerged in the lysis buffer containing a broad-range phosphatase inhibitor. The polyclonal antibodies recognizing either the β subunits of the IGF-IR or the β subunit of the insulin receptor were immobilized on separate sets of the IgG-bearing magnetic beads (Invitrogen Canada Inc, Burlington, ON) and then incubated for 1 hour with the aliquots of the cell lysates containing 400 μg of protein as described in the manufacturer protocol. The beads bearing the resulting immuno-precipitation products were re-suspended in sample buffer and the released proteins were resolved with SDS-PAGE and subjected to Western blotting with a monoclonal anti-p-Tyr (PY99) antibody from Santa Cruz Biotechnology Inc. (Santa Cruz, Calif.) and then with HRP-conjugated goat anti-mouse secondary antibody.
(In general: A western blot detects proteins with antibodies after separation by electrophoresis.)

[5] abbreviates: DMOG added along with 100 μM SA.

T1 sequence (P08069 741-1367 limits assumed): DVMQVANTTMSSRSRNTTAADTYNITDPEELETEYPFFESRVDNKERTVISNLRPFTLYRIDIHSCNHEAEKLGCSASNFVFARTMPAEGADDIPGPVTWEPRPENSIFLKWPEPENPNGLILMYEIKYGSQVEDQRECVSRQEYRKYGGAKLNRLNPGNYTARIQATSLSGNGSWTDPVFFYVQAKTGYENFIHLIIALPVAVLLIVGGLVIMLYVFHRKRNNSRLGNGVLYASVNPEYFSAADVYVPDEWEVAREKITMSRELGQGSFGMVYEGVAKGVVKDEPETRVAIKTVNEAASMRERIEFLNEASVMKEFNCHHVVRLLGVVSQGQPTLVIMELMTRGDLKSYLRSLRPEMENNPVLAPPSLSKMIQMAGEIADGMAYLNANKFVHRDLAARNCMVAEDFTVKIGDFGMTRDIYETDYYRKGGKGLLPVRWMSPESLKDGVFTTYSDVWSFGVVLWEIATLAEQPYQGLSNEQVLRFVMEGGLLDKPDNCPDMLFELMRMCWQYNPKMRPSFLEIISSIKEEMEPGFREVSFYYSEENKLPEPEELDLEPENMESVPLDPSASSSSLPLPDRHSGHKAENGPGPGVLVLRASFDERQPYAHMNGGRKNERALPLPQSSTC
T1 sequence (P08069 31-736 partner limits assumed): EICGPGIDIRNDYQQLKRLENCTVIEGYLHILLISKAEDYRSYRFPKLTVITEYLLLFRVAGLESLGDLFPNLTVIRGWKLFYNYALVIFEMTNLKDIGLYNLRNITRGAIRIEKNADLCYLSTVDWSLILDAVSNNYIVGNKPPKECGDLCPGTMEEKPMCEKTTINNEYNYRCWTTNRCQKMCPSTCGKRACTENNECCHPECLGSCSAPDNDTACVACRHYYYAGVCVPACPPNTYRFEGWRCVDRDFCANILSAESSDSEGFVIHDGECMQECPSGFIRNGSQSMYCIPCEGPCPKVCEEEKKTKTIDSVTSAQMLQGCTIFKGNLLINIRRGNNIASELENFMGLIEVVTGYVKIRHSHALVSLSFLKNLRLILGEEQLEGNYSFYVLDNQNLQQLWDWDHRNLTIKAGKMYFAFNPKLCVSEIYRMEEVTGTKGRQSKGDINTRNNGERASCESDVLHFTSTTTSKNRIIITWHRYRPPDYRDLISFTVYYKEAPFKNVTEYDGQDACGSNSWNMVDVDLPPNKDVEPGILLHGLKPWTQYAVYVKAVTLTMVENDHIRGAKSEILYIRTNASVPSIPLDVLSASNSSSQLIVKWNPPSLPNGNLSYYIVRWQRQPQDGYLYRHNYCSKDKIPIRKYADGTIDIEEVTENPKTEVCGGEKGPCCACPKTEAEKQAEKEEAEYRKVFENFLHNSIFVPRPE

Regarding `COC(=O)CNC(=O)C(=O)OC` [DMOG, reference compound], the “deposition of collagen fibers” value in test [1] (setting [5]) is “inhibits the deposition of collagen fibers”. Further, the “elastic fibers in ECM” value in the test on explants of dermal scars is “did not revealed any elastic fibers”. Also, the “SA-enhanced production of elastic fibers” value in test [2] (setting [5]) is recorded as “did not interfere with the enhanced production of elastic fibers; also recorded: does not diminish the elastogenic effect of SA”.
As to `O=C1O[C@H]([C@@H](O)CO)C(O)=C1O` [AA, L-ascorbic acid], the “levels of intracellular ROS” value in test [3] (100 μM, 2 hours) is given as “did not display any decrease in ROS contents”. For the same molecule, the “deposition of immuno-detected collagen fibers” value in test [1] (100 μM, 24-hour-old cultures, 5% FBS) is listed as “stimulated collagen deposition”. In test [4], the “production of elastic fibers / elastogenesis” value is given as “selective inhibition of new elastogenesis”.
As to “IGF-1: human IGF-I from Sigma-Aldrich, elastogenic stimulator”, in test [2] (50 ng/ml exogenous IGF-1, 24-hour treatment, 5% FBS), the elastogenic effects entry is listed as “strong elastogenic effects”.
In the case of `CC(C)(C)n1nc(-c2ccc(Cl)cc2)c2c(N)ncnc21` [PP2, reference compound], the “elastogenic effects of 100 μM SA after pre-treatment with the inhibitor (mRNA, tropoelastin, insoluble elastin, elastic fibers)” value in test [2] (5% FBS) is reported as “did not trigger elastogenic effects; also recorded: abolish all elastogenic effects”. The “SA-induced enhancement of IGF-1R phosphorylation in inhibitor-pretreated cultures” value at IGF-1 receptor is “eliminated”.
Take “TGF-[…]1: elastogenic stimulator (TGF-β1, Greek letter lost)”: the elastogenesis result in test [2] (1 ng/ml TGF-[…]1) is reported as “increase in elastogenesis”.
As to `COc1ccc(CNc2nc(N(CCO)CCO)nc3c2ncn3C(C)C)cc1` [CVT313, reference compound], the “elastogenic effects of 100 μM SA after pre-treatment with the inhibitor (mRNA, tropoelastin, insoluble elastin, elastic fibers)” value in test [2] (5% FBS) was “eliminated elastogenic effects of 100 μM SA”.
Take `CCCN(CCC)S(=O)(=O)c1ccc(C(=O)O)cc1` [probenecid, Probenecid, reference compound]: in test [3] (probenecid pre-incubation, then 100 μM SA for 2 hours), the “SA-induced decrease of ROS after probenecid pre-incubation” value is recorded as “could not be observed”. Moreover, the “basic deposition of elastic fibers” value in test [2] (100-400 μM probenecid alone, 24 hours, versus untreated control) is “did not demonstrate any decrease in their basic deposition of elastic fibers”. For the same molecule, the “elastogenic effects of 100 μM SA after pre-treatment with the inhibitor (mRNA, tropoelastin, insoluble elastin, elastic fibers)” value in test [2] (5% FBS) was “eliminated the elastogenetic effects of 100 μM SA; also recorded: averts the induction of elastogenic effects”.
In the case of `COc1cc([C@@H]2c3cc4c(cc3[C@H](O)[C@H]3COC(=O)[C@@H]23)OCO4)cc(OC)c1OC` [PPP, reference compound], the “SA-induced enhancement of IGF-1R phosphorylation in inhibitor-pretreated cultures” value on IGF-1 receptor is recorded as “eliminated”.
